Blank lines part the entries; values can stand above or below the compound they belong to.
Tests used:
Puccinia recondita = test: Puccinia test (wheat)/protective; format: in vivo; conditions: protective, application rate 250 g/ha, evaluation 10 days after inoculation
Experimental: (§1) To produce a suitable preparation of active compound, 1 part by weight of active compound is mixed with the stated amounts of solvent and emulsifier, and the concentrate is diluted with water to the desired concentration.
To test for protective activity, young plants are sprayed with the preparation of active compound at the stated application rate. After the spray coating has dried on, the plants are sprayed with a conidia suspension of Puccinia recondita. The plants remain in an incubation cabin at 20° C. and 100% relative atmospheric humidity for 48 hours.
The plants are then placed in a greenhouse at a temperature of approximately 20° C. and a relative atmospheric humidity of 80% to promote the development of rust pustules.
(§2) Evaluation is carried out 10 days after the inoculation. 0% means an efficacy which corresponds to that of the control, whereas an efficacy of 100% means that no infection is observed.

[1] = system: Gloeophyllum trabeum, Coniophora puteana, Poria placenta, Lentinus tigrinus and Coriolus versicolor; test: Inhibition test on giant colonies of Basidiomycetes; format: cell-based; conditions: 6 ppm active compound in malt extract peptone agar, 26° C.; read-out: % efficacy (percent inhibition of hyphal growth)
Experimental: Inhibition Test on Giant Colonies of Basidiomycetes Mycelium sections were removed from colonies of Gloeophyllum trabeum, Coniophora puteana, Poria placenta, Lentinus tigrinus and Coriolus versicolor and incubated on an agar medium containing malt extract peptone at 26° C. The inhibition of hyphal growth on active-compound-containing media was compared with the longitudinal growth on media without an addition of active compound and rated as percent inhibition.

Alternaria solani = test: Alternaria test (tomato)/protective; format: in vivo; conditions: protective, application rate 750 g/ha, evaluation 7 days after inoculation
Experimental: as §1
To test for protective activity, young tomato plants are sprayed with the preparation of active compound at the stated application rate. 1 day after the treatment, the plants are inoculated with a spore suspension of Alternaria solani and then remain at 100% rel. humidity and 20° C. for 24 h. The plants then remain at 96% rel. atmospheric humidity and a temperature of 20° C.
Evaluation is carried out 7 days after the inoculation. 0% means an efficacy which corresponds to that of the control, whereas an efficacy of 100% means that no infection is observed.

[2] = logP by HPLC on reversed-phase column (C 18), EEC Directive 79/831 Annex V.A8; format: physicochemical; conditions: reversed-phase HPLC column (C 18); acidic range, pH 2.3, 0.1% aqueous phosphoric acid and acetonitrile, 43° C. (marked a)
Experimental: The logP values given in the Preparation Examples and Tables above were determined in accordance with EEC Directive 79/831 Annex V.A8 by HPLC (High Performance Liquid Chromatography) on a reversed-phase column (C 18). Temperature: 43° C.
In the acidic range, the determination was carried out at pH 2.3 using the mobile phases 0.1% aqueous phosphoric acid and acetonitrile; linear gradient from 10% acetonitrile to 90% acetonitrile (marked ^a) in the Table).
In the neutral range, the determination was carried out at pH 7.5 using the mobile phases 0.01 molar aqueous phosphate buffer solution and acetonitrile; linear gradient from 10% acetonitrile to 90% acetonitrile (marked ^b) in the Table).

Podosphaera leucotricha = test: Podosphaera test (apple)/protective; format: in vivo; conditions: 240 h, protective, application rate 100 g/ha, evaluation 10 days after inoculation, read-out: % efficacy
Experimental: as §1
(§3) To test for protective activity, young plants are sprayed with the preparation of active compound at the stated application rate. After the spray coating has dried on, the plants are inoculated with an aqueous spore suspension of the apple mildew pathogen Podosphaera leucotricha. The plants are then placed in a greenhouse at approximately 23° C. and a relative atmospheric humidity of approximately 70%.
as §2

Sphaerotheca fuiginea = test: Sphaerotheca test (cucumber)/protective; format: in vivo; conditions: Cucumis sativus, 240 h, protective, application rate 100 g/ha, evaluation 10 days after inoculation, read-out: % efficacy
Experimental: as §1
as §3, with “Sphaerotheca fuiginea.” for “the apple mildew pathogen Podosphaera leucotricha.”
as §2

Venturia inaequalis = test: Venturia test (apple)/protective; format: in vivo; conditions: 288 h, protective, application rate 100 g/ha, evaluation 12 days after inoculation, read-out: % efficacy
Experimental: To produce a suitable preparation of active compound, 1 part by weight of active compound is mixed with the stated amount of solvent and emulsifier, and the concentrate is diluted with water to the desired concentration.
To test for protective activity, young plants are sprayed with the preparation of active compound at the stated application rate. After the spray coating has dried on, the plants are inoculated with an aqueous conidia suspension of the apple scab pathogen Venturia inaequalis and then remain in an incubation cabin at approximately 20° C. and 100% relative atmospheric humidity for 1 day.
The plants are then placed in a greenhouse at approximately 21° C. and a relative atmospheric humidity of approximately 90%.
Evaluation is carried out 12 days after the inoculation. 0% means an efficacy which corresponds to that of the control, whereas an efficacy of 100% means that no infection is observed.

Structure (SMILES): CO/N=C/c1ccc(-c2ccccc2NC(=O)c2c(C)nn(C)c2F)cc1F [Example 3, 5-fluoro-N-{3′-fluoro-4′-[(methoxyimino)methyl]-1,1′-biphenyl-2-yl}-1,3-dimethyl-1H-pyrazole-4-carboxamide]
% efficacy (Puccinia recondita): 100%
Emax at 6 ppm [1]: 100%

Structure (SMILES): CO/N=C(\C)c1ccc(-c2ccccc2NC(=O)c2c(C)nn(C)c2F)cc1 [Example 4, 5-fluoro-N-[4′-(N-methoxyethaneimidoyl)-1,1′-biphenyl-2-yl]-1,3-dimethyl-1H-pyrazole-4-carboxamide]
% efficacy (Alternaria solani): 90%
Emax at 6 ppm [1]: 100%

chromatographic logP [2]: 2.51
Structure (SMILES): CO/N=C/c1ccc(-c2cccc(F)c2NC(=O)c2c(C)nn(C)c2F)cc1 [Example 9]
% efficacy (Puccinia recondita): 100%
Emax at 6 ppm [1]: 100%

Structure (SMILES): CO/N=C/c1ccc(-c2ccccc2NC(=O)c2c(C)nn(C)c2F)cc1 [Example 1, 5-fluoro-N-{4′-[(methoxyimino)methyl]-1,1′-biphenyl-2-yl}-1,3-dimethyl-1H-pyrazole-4-carboxamide]
pest or weed control at 100 g/ha (Podosphaera leucotricha): 100%
pest or weed control at 100 g/ha (Sphaerotheca fuiginea): 100%
pest or weed control at 100 g/ha (Venturia inaequalis): 100%
% efficacy (Puccinia recondita): 100%
% efficacy (Alternaria solani): 95%
Emax at 6 ppm [1]: 100%

Source: patent publication US7348350B2, “Pyrazolyl biphenyl carboxamides and the use thereof for controlling undesirable microorganisms” (Bayer CropScience AG, priority 2000, dated 2008)
